Here are results for nine molecules from US20260224526A1, “SALT OF DIPEPTIDE COMPOUND, PREPARATION METHOD THEREOF, AND USE THEREOF” (ZHEJIANG HUAHAI PHARMACEUTICAL CO., LTD., priority 2023, published 2026).

In one series the test system is deep vein thrombosis. In words: Rats model of deep vein thrombosis. Particulars: for antithrombotic efficacy, Form I and dabigatran etexilate compared: at the same dose, oral. In kind it is in vivo, SD rats. From the text: Experimental animals: SD rats (body weight 220 to 250 g, sex: male)
The thrombus was removed and weighed.

Series [1] can be described thus: Blood drug level in rats model of deep vein thrombosis. The format is in vivo, SD rats.
The nature of the next series: Solubility. In kind it is physicochemical.
Series [2] in a line: DVS (Dynamic Vapor Sorption) water absorption. In kind it is physicochemical.
A short description of the next series: Partition coefficient. In kind it is physicochemical.
The nature of the next series: pKa. The format is physicochemical.
Series [3] in a line: Moisture adsorption content / hygroscopicity. The format is physicochemical.
A short description of series [4]: Form III stability: mechanical milling and storage at 60° C./sealed condition. In kind it is physicochemical.
Setting [5] is: intravenous infusion of 0.1 mg/kg/h in rats.

Each structure is given as a SMILES string. Converted amounts (≈) assume the structure as drawn. Where a name gives a salt, the structure may show the parent alone. Read-outs that look alike come from different tables or passages of the source. Some results are limits rather than exact numbers.

`CC(C)C[C@@H](NCC(=O)O)C(=O)N1CCC[C@H]1C(=O)NCc1ccc(C(=N)N)cc1` [Compound V]: the “antithrombotic effect compared with oral 5 mg/kg Form I” value in the series on deep vein thrombosis (setting [5]) is on record as “comparable”. The “blood drug levels of compound V compared with oral 5 mg/kg Form I” value in series [1] (setting [5]) is recorded as “comparable”.

`CCCCCCOC(=O)NC(=N)c1ccc(CNC(=O)[C@@H]2CCCN2C(=O)[C@@H](CC(C)C)NCC(=O)OCC)cc1` [monohydrochloride]: in the series “Solubility” (water), the aqueous solubility entry is reported as “excellent aqueous solubility”.

`CCCCCCOC(=O)N=C(N)c1ccc(NCc2nc3cc(C(=O)N(CCC(=O)OCC)c4ccccn4)ccc3n2C)cc1` [Dabigatran etexilate, reference compound]: in the series with deep vein thrombosis (rats), the “antithrombotic efficacy, Form I and dabigatran etexilate compared” value is listed as “basically equivalent”.

Regarding `CCCCCCOC(=O)NC(=N)c1ccc(CNC(=O)[C@@H]2CCCN2C(=O)[C@@H](CC(C)C)NCC(=O)OCC)cc1` [free alkali of the compound of formula II], the aqueous solubility result in the series “Solubility” (water) is recorded as “insoluble in water”.

Broadly, the solubility is the concentration that dissolves in the medium under given conditions. In general, logP refers to the decadic logarithm of the partition coefficient of the neutral form, usually between octanol and water. High values mean higher lipophilicity, low ones lower lipophilicity. `CCCCCCOC(=O)NC(=N)c1ccc(CNC(=O)[C@@H]2CCCN2C(=O)[C@@H](CC(C)C)NCC(=O)OCC)cc1` [Form I] gave a Thrombosis inhibition rate with deep vein thrombosis (10 mg/kg, oral gavage, rats) of 70.0%. Besides, the “antithrombotic efficacy, Form I and dabigatran etexilate compared” value in the series on deep vein thrombosis (rats) is listed as “basically equivalent”. Further, the solubility was under 0.3 mg/mL in the series “Solubility” (BA, organic solvent or mixture, read-out: Solubility); 9.0, 10.0, 11.0, 12.0 and 13.0), readily soluble in the series “Solubility” (acetonitrile and dichloromethane); “Highly soluble in buffer solutions with different” in “Solubility” (buffer solutions with different pH values (1.2, 2.0, 3.0, 4.0, 5.0, 6.0, 7.0, 8.0, 9.0, 10.0, 11.0, 12.0 and 13.0)); over 250 mg/mL in the series “Solubility” (organic solvent or mixture, AC (Acetic acid), read-out: Solubility); over 250 mg/mL in the series “Solubility” (organic solvent or mixture, ACN (Acetonitrile), read-out: Solubility); over 250 mg/mL in “Solubility” (organic solvent or mixture, DMSO (Dimethyl sulfoxide), read-out: Solubility). The solubility in “Solubility” (organic solvent or mixture, Diox (1,4-Dioxane), read-out: Solubility) was about 125 mg/mL (≈ 218 mM); in the series “Solubility” (organic solvent or mixture, EtOH (Ethanol), read-out: Solubility), over 250 mg/mL; in the series “Solubility” (organic solvent or mixture, Hept (n-Heptane), read-out: Solubility), under 0.3 mg/mL; in the series “Solubility” (organic solvent or mixture, IPA (Isopropyl alcohol), read-out: Solubility) it was about 167 mg/mL (≈ 291 mM); in “Solubility” (organic solvent or mixture, IPAc (Isopropyl acetate), read-out: Solubility), about 0.5 mg/mL (≈ 0.871 mM); in the series “Solubility” (organic solvent or mixture, MEK (Methyl ethyl ketone), read-out: Solubility), about 1.6 mg/mL (≈ 2.79 mM). Besides, the solubility is under 0.3 mg/mL in “Solubility” (organic solvent or mixture, MTBE (Methyl tert-butyl ether), read-out: Solubility); about 167 mg/mL (≈ 291 mM) in “Solubility” (organic solvent or mixture, NBA (n-Butanol), read-out: Solubility); about 11.1 mg/mL (≈ 19.3 mM) in “Solubility” (organic solvent or mixture, THF (Tetrahydrofuran), read-out: Solubility); under 0.3 mg/mL in “Solubility” (organic solvent or mixture, Tol (Toluene), read-out: Solubility); over 250 mg/mL in “Solubility” (water, read-out: Solubility). Further, the “form of sample after DVS test” value in series [2] (after DVS test) is listed as “converted to amorphous form”. In series [2] (high humidity), the “behaviour of sample at high humidity (DVS)” value was “undergoes deliquescence”. The same molecule had a logP in “Partition coefficient” of over 3.38. The “Log D7.4” value in “Partition coefficient” (pH 7.4) was 2.06. In the series “pKa”, this molecule gave a pKa1 of 4.94. The pKa2 in “pKa” was found to be 5.54. This molecule showed a pKa3 in the series “pKa” of 10.61. In series [3], the Hygroscopicity result is on record as “Hygroscopic”. For the same molecule, the “blood drug levels of compound V” value in series [1] (oral administration of 2.5 mg/kg of Form I to rats) was determined as 190.1 ng/mL; in series [1] (oral administration of 5 mg/kg of Form I to rats), 181.3 ng/mL; in series [1] (oral administration of 10 mg/kg of Form I to rats) it was 341.9 ng/mL; in series [1] (oral administration of 20 mg/kg of Form I to rats), 609.7 ng/mL.

In the case of `CCCCCCOC(=O)NC(=N)c1ccc(CNC(=O)[C@@H]2CCCN2C(=O)[C@@H](CC(C)C)NCC(=O)OCC)cc1` [dihydrochloride], the aqueous solubility entry in “Solubility” (water) is on record as “excellent aqueous solubility”.

As to `CCCCCCOC(=O)NC(=N)c1ccc(CNC(=O)[C@@H]2CCCN2C(=O)[C@@H](CC(C)C)NCC(=O)OCC)cc1` [Form B of the monohydrochloride], in series [3], the Hygroscopicity result was “(Hygroscopic)” and the Moisture adsorption content came to 3.0 wt %.

Molecule `CCCCCCOC(=O)NC(=N)c1ccc(CNC(=O)[C@@H]2CCCN2C(=O)[C@@H](CC(C)C)NCC(=O)OCC)cc1` [Form A of the monohydrochloride] showed a Moisture adsorption content in series [3] of 0.5 wt %.

On to `CCCCCCOC(=O)NC(=N)c1ccc(CNC(=O)[C@@H]2CCCN2C(=O)[C@@H](CC(C)C)NCC(=O)OCC)cc1` [Form III], for which the purity after storage in series [4] (60° C./sealed condition for 7 days) stood at 89.35%. The purity before storage in series [4] (before storage at 60° C./sealed condition) came out at 95.81%.
